The record followed here is patent US20220323455A1, “FUSED HETEROCYCLIC DERIVATIVES AS ANTIVIRAL AGENTS” (priority 2019, published 2022).

In this assay the test system is HBV. The assay can be described thus: HBV replication inhibition assay (BDNA assay) in HepG2.2.15 cells. Type of assay: cell-based, Hepatitis B virus. The following applies: 6 days, encapsidated HBV DNA in supernatant. The gist of the method: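 HepG2.2.15 cells were dosed with serially diluted compound (0.5% DMSO), with compound and medium renewed at day 3. Day-6 supernatants were DNase-treated and proteinase K-lysed, and encapsidated HBV DNA was quantified by branched-DNA assay. Percent inhibition was set against DMSO controls and EC50 obtained by nonlinear fit.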

For the molecule `C#CC1(O)CCC(F)(F)c2c3c(nn2C1)C[C@@H](C)N(C(=O)Nc1ccnc(Br)c1F)C3` (single isomer, unassigned) [Example 96, (3R,8R*)—N-(2-Bromo-3-fluoropyridin-4-yl)-8-ethynyl-11,11-difluoro-8-hydroxy-3-methyl-3,4,8,9,10,11-hexahydro-1H-pyrido[4′,3′:3,4]pyrazolo[1,5-a]azepine-2(7H)-carboxamide], the EC50 worked out at 35 nM.
Then `C#CC1(O)CCC(F)(F)c2c3c(nn2C1)C[C@@H](C)N(C(=O)Nc1ccc(F)c(C#N)c1)C3` (single isomer, unassigned) [Example 98, (3R,8S*)—N-(3-Cyano-4-fluorophenyl)-8-ethynyl-11,11-difluoro-8-hydroxy-3-methyl-3,4,8,9,10,11-hexahydro-1H-pyrido[4′,3′:3,4]pyrazolo[1,5-a]azepine-2(7H)-carboxamide], with 51 nM; and `C#CC1(O)CCC(F)(F)c2c3c(nn2C1)C[C@@H](C)N(C(=O)Nc1ccnc(Br)c1F)C3` (single isomer, unassigned) [Example 99, (3R,8S*)—N-(2-Bromo-3-fluoropyridin-4-yl)-8-ethynyl-11,11-difluoro-8-hydroxy-3-methyl-3,4,8,9,10,11-hexahydro-1H-pyrido[4′,3′:3,4]pyrazolo[1,5-a]azepine-2(7H)-carboxamide], with 275 nM; and `C[C@@H]1Cc2nn3c(c2CN1C(=O)Nc1ccc(F)c(C#N)c1)C(F)(F)CCC(C(C)(C)O)C3` (single isomer, unassigned) [Example 101, (3R,8S*)—N-(3-Cyano-4-fluorophenyl)-11,11-difluoro-8-(2-hydroxypropan-2-yl)-3-methyl-3,4,8,9,10,11-hexahydro-1H-pyrido[4′,3′:3,4]pyrazolo[1,5-a]azepine-2(7H)-carboxamide], with 44 nM.
Then `C[C@@H]1Cc2nn3c(c2CN1C(=O)Nc1ccnc(Br)c1F)C(F)(F)CCC(C(C)(C)O)C3` (single isomer, unassigned) [Example 102, (3R,8S*)—N-(2-Bromo-3-fluoropyridin-4-yl)-1111-difluoro-8-(2-hydroxypropan-2-yl)-3-methyl-3,4,8,9,10,11-hexahydro-1H-pyrido[4′,3′:3,4]pyrazolo[1,5-a]azepine-2(7H)-carboxamide], with 88 nM.
In the case of `C[C@@H]1Cc2nn3c(c2CN1C(=O)Nc1ccc(F)c(C#N)c1)C(F)(F)CCC(C(C)(C)O)C3` (single isomer, unassigned) [Example 103, (3R,8R*)—N-(3-Cyano-4-fluorophenyl)-11,11-difluoro-8-(2-hydroxypropan-2-yl)-3-methyl-3,4,8,9,10,11-hexahydro-1H-pyrido[4′,3′:3,4]pyrazolo[1,5-a]azepine-2(7H)-carboxamide], the EC50 was found to be 18 nM.
Then `C[C@@H]1Cc2nn3c(c2CN1C(=O)Nc1ccnc(Br)c1F)C(F)(F)CCC(C(C)(C)O)C3` (single isomer, unassigned) [Example 104, (3R,8R*)—N-(2-Bromo-3-fluoropyridin-4-yl)-11,11-difluoro-8-(2-hydroxypropan-2-yl)-3-methyl-3,4,8,9,10,11-hexahydro-1H-pyrido[4′,3′:3,4]pyrazolo[1,5-a]azepine-2(7H)-carboxamide], with 36 nM; and `COC(=O)NCC1CCC(F)(F)c2c3c(nn2C1)C[C@@H](C)N(C(=O)Nc1ccc(F)c(C#N)c1)C3` (single isomer, unassigned) [Example 105, methyl (((3R,8R*)-2-((3-cyano-4-fluorophenyl)carbamoyl)-11,11-difluoro-3-methyl-2,3,4,7,8,9,10,11-octahydro-1H-pyrido[4′,3′:3,4]pyrazolo[1,5-a]azepin-8-yl)methyl)carbamate], with 3 nM; and `COC(=O)NCC1CCC(F)(F)c2c3c(nn2C1)C[C@@H](C)N(C(=O)Nc1ccnc(Br)c1F)C3` (single isomer, unassigned) [Example 106, Methyl (((3R,8R*)-2-((2-bromo-3-fluoropyridin-4-yl)carbamoyl)-11,11-difluoro-3-methyl-2,3,4,7,8,9,10,11-octahydro-1H-pyrido[4′,3′:3,4]pyrazolo[1,5-a]azepin-8-yl)methyl)carbamate], with 10 nM.
On to `COC(=O)NCC1CCC(F)(F)c2c3c(nn2C1)C[C@@H](C)N(C(=O)Nc1ccnc(C(F)F)c1F)C3` (single isomer, unassigned) [Example 107, Methyl (((3R,8R*)-2-((2-(difluoromethyl)-3-fluoropyridin-4-yl)carbamoyl)-11,11-difluoro-3-methyl-2,3,4,7,8,9,10,11-octahydro-1H-pyrido[4′,3′:3,4]pyrazolo[1,5-a]azepin-8-yl)methyl)carbamate], for which the EC50 was found to be 8 nM.
`COC(=O)NCC1CCC(F)(F)c2c3c(nn2C1)C[C@@H](C)N(C(=O)Nc1ccc(F)c(C#N)c1)C3` (single isomer, unassigned) [Example 108, Methyl (((3R,8S*)-2-((3-cyano-4-fluorophenyl)carbamoyl)-11,11-difluoro-3-methyl-2,3,4,7,8,9,10,11-octahydro-1H-pyrido[4′,3′:3,4]pyrazolo[1,5-a]azepin-8-yl)methyl)carbamate]: the EC50 amounted to 12 nM.
The result for `COC(=O)NCC1CCC(F)(F)c2c3c(nn2C1)C[C@@H](C)N(C(=O)Nc1ccnc(Br)c1F)C3` (single isomer, unassigned) [Example 109, Methyl (((3R,8S*)-2-((2-bromo-3-fluoropyridin-4-yl)carbamoyl)-11,11-difluoro-3-methyl-2,3,4,7,8,9,10,11-octahydro-1H-pyrido[4′,3′:3,4]pyrazolo[1,5-a]azepin-8-yl)methyl)carbamate] reads 32 nM.
Regarding `COC(=O)NCC1CCC(F)(F)c2c3c(nn2C1)C[C@@H](C)N(C(=O)Nc1ccnc(C(F)F)c1F)C3` (single isomer, unassigned) [Example 110, Methyl (((3R,8S*)-2-((2-(difluoromethyl)-3-fluoropyridin-4-yl)carbamoyl)-11,11-difluoro-3-methyl-2,3,4,7,8,9,10,11-octahydro-1H-pyrido[4′,3′:3,4]pyrazolo[1,5-a]azepin-8-yl)methyl)carbamate], the EC50 worked out at 18 nM.
For the molecule `C[C@@H]1Cc2nn3c(c2CN1C(=O)Nc1ccc(F)c(C#N)c1)C(F)(F)CCC(F)(CO)C3` (single isomer, unassigned) [Example 111, (3R,8S*)—N-(3-Cyano-4-fluorophenyl)-8,11,11-trifluoro-8-(hydroxymethyl)-3-methyl-3,4,8,9,10,11-hexahydro-1H-pyrido[4′,3′:3,4]pyrazolo[1,5-a]azepine-2(7H)-carboxamide], the 50% effective concentration (EC50) was 7 nM.
On to `C[C@@H]1Cc2nn3c(c2CN1C(=O)Nc1ccnc(Br)c1F)C(F)(F)CCC(F)(CO)C3` (single isomer, unassigned) [Example 112, (3R,8S*)—N-(2-Bromo-3-fluoropyridin-4-yl)-8,11,11-trifluoro-8-(hydroxymethyl)-3-methyl-3,4,8,9,10,11-hexahydro-1H-pyrido[4′,3′:3,4]pyrazolo[1,5-a]azepine-2(7H)-carboxamide], for which the EC50 came to 45 nM.
Then `C[C@@H]1Cc2nn3c(c2CN1C(=O)Nc1ccnc(C(F)F)c1F)C(F)(F)CCC(F)(CO)C3` (single isomer, unassigned) [Example 113, (3R,8S*)—N-(2-(Difluoromethyl)-3-fluoropyridin-4-yl)-8,11,11-trifluoro-8-(hydroxymethyl)-3-methyl-3,4,8,9,10,11-hexahydro-1H-pyrido[4′,3′:3,4]pyrazolo[1,5-a]azepine-2(7H)-carboxamide], with 154 nM; and `C[C@@H]1Cc2nn3c(c2CN1C(=O)Nc1ccc(F)c(C#N)c1)C(F)(F)CCC(F)(CO)C3` (single isomer, unassigned) [Example 114, (3R,8R*)—N-(3-Cyano-4-fluorophenyl)-8,11,11-trifluoro-8-(hydroxylmethyl)-3-methyl-3,4,8,9,10,11-hexahydro-1H-pyrido[4′,3′:3,4]pyrazolo[1,5-a]azepine-2(7H)-carboxamide], with 1 nM.
For `C[C@@H]1Cc2nn3c(c2CN1C(=O)Nc1ccnc(Br)c1F)C(F)(F)CCC(F)(CO)C3` (single isomer, unassigned) [Example 115, (3R,8R*)—N-(2-Bromo-3-fluoropyridin-4-yl)-8,11,11-trifluoro-8-(hydroxylmethyl)-3-methyl-3,4,8,9,10,11-hexahydro-1H-pyrido[4′,3′:3,4]pyrazolo[1,5-a]azepine-2(7H)-carboxamide], the EC50 stood at 5 nM.
For `C[C@@H]1Cc2nn3c(c2CN1C(=O)Nc1ccnc(C(F)F)c1F)C(F)(F)CCC(F)(CO)C3` (single isomer, unassigned) [Example 116, (3R,8R*)—N-(2-(Difluoromethyl)-3-fluoropyridin-4-yl)-8,11,11-trifluoro-8-(hydroxymethyl)-3-methyl-3,4,8,9,10,11-hexahydro-1H-pyrido[4′,3′:3,4]pyrazolo[1,5-a]azepine-2(7H)-carboxamide], the EC50 amounted to 10 nM.
Turning to `C[C@@H]1Cc2nn3c(c2CN1C(=O)Nc1ccnc(Br)c1F)C(F)(F)CC(O)CC3` (single isomer, unassigned) [Example 117, (3R,9S*)—N-(2-Bromo-3-fluoropyridin-4-yl)-11,11-difluoro-9-hydroxyl-3-methyl-3,4,8,9,10,11-hexahydro-1H-pyrido[4′,3′:3,4]pyrazolo[1,5-a]azepine-2(7H)-carboxamide], the 50% effective concentration (EC50) was found to be 18 nM.
On to `C[C@@H]1Cc2nn3c(c2CN1C(=O)Nc1ccnc(Br)c1F)C(F)(F)CC(O)CC3` (single isomer, unassigned) [Example 118, (3R,9R*)—N-(2-Bromo-3-fluoropyridin-4-yl)-11,11-difluoro-9-hydroxyl-3-methyl-3,4,8,9,10,11-hexahydro-1H-pyrido[4′,3′:3,4]pyrazolo[1,5-a]azepine-2(7H)-carboxamide], for which the concentration for a half-maximal effect (EC50) came out at 3 nM.
As for `C[C@@H]1Cc2nn3c(c2CN1C(=O)Nc1ccnc(C(F)F)c1F)C(F)(F)CC(O)CC3` (single isomer, unassigned) [Example 121, (3R,9S*)—N-(2-(Difluoromethyl)-3-fluoropyridin-4-yl)-11,11-difluoro-9-hydroxy-3-methyl-3,4,8,9,10,11-hexahydro-1H-pyrido[4′,3′:3,4]pyrazolo[1,5-a]azepine-2(7H)-carboxamide], the concentration giving a half-maximal response (EC50) worked out at 8 nM.
